Test [1] deals with CRF receptor type 1. Further details: method as in PMID 17057757. As to conditions: blockade of UCN1; cited from earlier work.
The target of test [2] is T1, CRF1 receptor (hCRF1α) (Homo sapiens, UniProt P34998).
T1 construct: host or cells: Cos7 cells, transient transfection (PEI), pcDNA3.0/3.1 vector
T1 sequence (P34998 24-415): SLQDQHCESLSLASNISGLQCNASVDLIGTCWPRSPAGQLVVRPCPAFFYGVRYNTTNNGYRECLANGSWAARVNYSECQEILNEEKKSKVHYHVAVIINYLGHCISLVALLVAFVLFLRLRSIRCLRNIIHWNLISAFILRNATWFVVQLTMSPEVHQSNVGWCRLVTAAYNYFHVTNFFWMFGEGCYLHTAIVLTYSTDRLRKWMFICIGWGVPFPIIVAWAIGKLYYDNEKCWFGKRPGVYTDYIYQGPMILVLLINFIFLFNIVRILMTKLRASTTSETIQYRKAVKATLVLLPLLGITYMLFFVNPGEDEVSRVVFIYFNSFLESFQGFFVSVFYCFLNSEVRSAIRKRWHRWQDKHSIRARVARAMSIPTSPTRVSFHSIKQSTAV
Briefly: cAMP accumulation (LANCE) in Cos7 cells transfected with hCRF1α, agonist stimulation. It is filed as cell-based. To be noted: cAMP, CRF1 receptor, antagonist alone, n = 3. The source says: (§1) Plasmids containing hCRF1α and hCRF2α (GenBank accession numbers AY457172 and AY449734) were obtained from the cDNA Resource Centre (Bloomsburg University) and are referred to as CRF1 and CRF2 in this manuscript. Hemagglutinin (HA) epitope‐tagged human Calcitonin (CT) receptor (CT(a) splice variant) and myc‐tagged human RAMP1 were used as described previously. ^27 HA‐tagged human calcitonin receptor‐like receptor (CLR), N‐terminal FLAG‐tagged human RAMP3 and N‐terminal myc‐tagged human RAMP3 were a gift from Professor David Poyner (Aston University) and Professor Patrick Sexton (Monash University), respectively. N‐terminal FLAG‐tagged human RAMP2 was used as described previously. ^28 All receptors and RAMPs were cloned in pcDNA3.0 or pcDNA3.1 plasmid vectors. All plasmid inserts were sequenced at the Centre for Genomics, Proteomics and Metabolomics (University of Auckland) and the sequences were verified prior to use.
Cos7, HEK‐293S, and HEK‐293T cells were cultured as described previously. ^28 , ^29 Cos7 cells were originally supplied by the ATCC to Associate Professor Nigel Birch (University of Auckland). HEK‐293S cells were a gift from Professor David Poyner (Aston University) and HEK‐293T cells a gift from Professor John Taylor (University of Auckland). Briefly, all cell lines were cultured in Dulbecco's Modified Eagle Medium (DMEM) supplemented with 8% heat inactivated fetal bovine serum (FBS) and maintained in a humidified incubator at 37°C with 5% CO2. For transfection, cells were counted (Countess CounterTM; Life Technologies) and plated at a density of 20 000 cells per well in 96‐well plates. The cells were transiently transfected 48 hours prior to assaying using polyethylenimine (PEI), as described previously. ^28 , ^29 In all experiments a total of 0.25 μg DNA was transfected per well. In the majority of experiments 0.25 μg DNA of receptor‐containing plasmid or the pcDNA3.1 plasmid without an insert was used. For experiments involving RAMPs, 0.125 μg of receptor DNA and 0.125 μg of RAMP‐containing plasmid DNA were transfected to give a 1:1 ratio of receptor to RAMP. […]
cAMP accumulation in Cos7 cells transfected with hCRF1α or hCRF2α receptors was measured using the LANCE cAMP detection assay kit (PerkinElmer Life and Analytical Sciences) as described previously. ^30 Briefly, culture media was removed and replaced with DMEM containing 0.1% bovine albumin serum (BSA) and 1 mmol/L 3‐isobutyl‐1‐methylxanthine (IBMX) for 30 minutes at 37°C. […] Samples were shaken for 15 minutes before 5 µL cell lysate was transferred to a white 384‐well optiplate and processed for cAMP quantification as described previously. ^31 Samples were read using an Envision plate reader (PerkinElmer). cAMP concentrations were determined from a standard curve generated in duplicate. […]
(In general: Changes in cAMP serve as a functional read-out for many G protein-coupled receptors.)

The target of test [3] is T2, CRF2 receptor (hCRF2α) (Homo sapiens, UniProt Q13324).
T2 construct: host or cells: Cos7 cells, transient transfection (PEI), pcDNA3.0/3.1 vector
T2 sequence (Q13324 1-411): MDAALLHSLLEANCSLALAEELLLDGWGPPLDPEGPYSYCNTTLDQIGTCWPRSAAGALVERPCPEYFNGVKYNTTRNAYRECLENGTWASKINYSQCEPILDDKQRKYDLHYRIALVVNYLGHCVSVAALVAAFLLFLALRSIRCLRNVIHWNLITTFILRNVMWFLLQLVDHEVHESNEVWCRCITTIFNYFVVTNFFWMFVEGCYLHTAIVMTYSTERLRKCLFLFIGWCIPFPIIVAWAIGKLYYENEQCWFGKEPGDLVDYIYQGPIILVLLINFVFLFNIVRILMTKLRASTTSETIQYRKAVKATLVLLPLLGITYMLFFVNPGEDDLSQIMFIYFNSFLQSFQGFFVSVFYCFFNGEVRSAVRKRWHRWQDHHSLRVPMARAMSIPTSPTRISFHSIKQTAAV
Briefly: cAMP accumulation (LANCE) in Cos7 cells transfected with hCRF2α, agonist stimulation. It is filed as cell-based. To be noted: COS-7; cAMP, CRF2 receptor, antagonist alone; n = 3; read-out: E max (partial agonism of antagonist).
Description: as §1
(§2) Cos7, HEK‐293S, and HEK‐293T cells were cultured as described previously. ^28 , ^29 Cos7 cells were originally supplied by the ATCC to Associate Professor Nigel Birch (University of Auckland). HEK‐293S cells were a gift from Professor David Poyner (Aston University) and HEK‐293T cells a gift from Professor John Taylor (University of Auckland). Briefly, all cell lines were cultured in Dulbecco's Modified Eagle Medium (DMEM) supplemented with 8% heat inactivated fetal bovine serum (FBS) and maintained in a humidified incubator at 37°C with 5% CO2. For transfection, cells were counted (Countess CounterTM; Life Technologies) and plated at a density of 20 000 cells per well in 96‐well plates. The cells were transiently transfected 48 hours prior to assaying using polyethylenimine (PEI), as described previously. ^28 , ^29 In all experiments a total of 0.25 μg DNA was transfected per well. In the majority of experiments 0.25 μg DNA of receptor‐containing plasmid or the pcDNA3.1 plasmid without an insert was used. For experiments involving RAMPs, 0.125 μg of receptor DNA and 0.125 μg of RAMP‐containing plasmid DNA were transfected to give a 1:1 ratio of receptor to RAMP. Where the RAMP or receptor were transfected alone, the ratio of DNA was made up with the pcDNA3.1 plasmid.
(§3) cAMP accumulation in Cos7 cells transfected with hCRF1α or hCRF2α receptors was measured using the LANCE cAMP detection assay kit (PerkinElmer Life and Analytical Sciences) as described previously. ^30 Briefly, culture media was removed and replaced with DMEM containing 0.1% bovine albumin serum (BSA) and 1 mmol/L 3‐isobutyl‐1‐methylxanthine (IBMX) for 30 minutes at 37°C. Cells were incubated for an additional 15 minutes at 37°C with media or agonist concentrations of 1 pmol/L to 1 µmol/L for agonist only assays or 10 pmol/L to 10 µmol/L concentrations for antagonist experiments. Antagonists were added simultaneously or immediately prior to the addition of agonists. To stop cell stimulation and extract cAMP, the contents of the wells were replaced with 50 µL absolute ethanol. Samples were left at −20°C for a minimum of 10 minutes. The ethanol was evaporated and replaced with 50 µL of cAMP detection buffer. Samples were shaken for 15 minutes before 5 µL cell lysate was transferred to a white 384‐well optiplate and processed for cAMP quantification as described previously. ^31 Samples were read using an Envision plate reader (PerkinElmer). cAMP concentrations were determined from a standard curve generated in duplicate.
(§4) In all experiments the position of peptides and antagonists (pharmacology) or transfected receptors (ELISAs) on assay plates was randomized during each independent experiment, which are independent biological replicates. In all cases, duplicate, triplicate, or quadruplicate technical replicates were conducted for each independent experiment.

In test [4] the target is T1, CRF1 receptor (hCRF1α). Briefly: Antagonism of agonist-mediated cAMP accumulation in Cos7 cells expressing CRF1 receptors. It is filed as cell-based. As to conditions: for Kb: hCRF1α, global Schild analysis, mean ± SEM, read-out: antagonist potency (pKB) (converted).
Test [5] concerns the target T2, CRF2 receptor (hCRF2α). Briefly: Antagonism of agonist-mediated cAMP accumulation in Cos7 cells expressing CRF2 receptors. As to conditions: for Kb: hCRF2α, global Schild analysis, mean ± SEM, n = 5, read-out: antagonist potency (pKB) (converted). The class given is cell-based.
Description: as §1, §2, §3, §4

In test [6] the test system is CRF2 receptor. As to conditions: cited from earlier work.

Read-outs that look alike come from different tables or passages of the source. No end group written: not given here.

`CCCCN(CC)c1nc(C)nc2c1c(C)c(C)n2-c1c(C)cc(C)cc1C` [antalarmin]: in test [1], the “mode of antagonism of Gαi activity” value is recorded as “non‐competitive antagonist of Gαi activity” and the “mode of antagonism of Gαs activity” value is reported as “competitive antagonist of Gαs”.

Regarding `CCCC[C@H](NC(=O)[C@H](CCCCN)NC(=O)[C@H](CCCNC(=N)N)NC(=O)[C@H](CC(C)C)NC(=O)[C@](C)(CC(C)C)NC(=O)[C@H](Cc1c[nH]cn1)NC(=O)[C@@H](Cc1ccccc1)NC(=O)[C@H](CO)NC(=O)[C@H](CC(C)C)NC(=O)[C@H](CC(=O)O)NC(C)=O)C(=O)N[C@H](C(=O)N[C@@H](CCC(=O)O)C(=O)N[C@H](C(=O)N[C@@H](CCC(=O)O)C(=O)N[C@@H](CCCCN)C(=O)N[C@@H](CCC(N)=O)C(=O)N[C@@H](CCC(=O)O)C(=O)N[C@@H](CCCCN)C(=O)N[C@@H](CCC(=O)O)C(=O)N[C@@H](CCCCN)C(=O)N[C@@H](CCC(N)=O)C(=O)N[C@@H](CCC(N)=O)C(=O)N[C@@H](C)C(=O)N[C@H]1CCC(=O)NCCCC[C@@H](C(=O)N[C@@H](CC(C)C)C(=O)N[C@@H](CC(C)C)C(=O)N[C@@H](CC(C)C)C(=O)N[C@@H](CC(=O)O)C(=O)N[C@@](C)(CC(C)C)C(=O)N[C@H](C(N)=O)[C@@H](C)CC)NC(=O)[C@H](CC(N)=O)NC(=O)[C@H](CC(N)=O)NC1=O)[C@@H](C)CC)[C@@H](C)CC` [astressin2B], in test [2], the partial agonism result was “this was not the case at the CRF1 receptor”. Also, the Emax in test [3] was 11%. In addition, the Kb in test [4] (agonist CRF, cAMP, n = 5) was 479 nM; in test [4] (agonist UCN1, cAMP, n = 5 (CP‐376,395), n = 3 (astressin2B)), > 5010 nM; in test [5] (agonist CRF, cAMP), 0.302 nM; in test [5] (agonist UCN1, cAMP), 3.63 nM. Besides, the “antagonism of UCN1‐mediated cAMP signaling” value in test [4] (up to 5 μmol/L, CRF1 receptor) is recorded as “did not measurably antagonize”. Besides, in test [5] (CRF2 receptor), the “potency against CRF‐mediated relative to UCN1‐mediated cAMP signaling” value was “approximately 10 fold”. In addition, the “potency at CRF2 receptor compared to CRF1 receptor” value in test [5] (antagonism of either CRF or UCN1‐induced cAMP signaling) is given as “at least 1000 fold”. Moreover, in test [6], the selectivity result is given as “selective antagonist of the CRF2 receptor”.

As for “DLTFHLLREMLEMAKAEQEAEQAALNRLLLEEA-NH2 [α‐helical CRF(9‐41)] [listing 1 of 2 here]”, the Emax in test [2] (COS-7, read-out: E max (partial agonism of antagonist)) worked out at 14.8%.

Take “DLTFHLLREMLEMAKAEQEAEQAALNRLLLEEA-NH2 [α‐helical CRF(9‐41)] [listing 2 of 2 here]”: the Kb was 170 nM in test [4] (agonist CRF, cAMP, n = 5) and 18.6 nM in test [5] (agonist CRF, cAMP).

Values taken from paper PMC7290078, “Agonist bias and agonist‐dependent antagonism at corticotrophin releasing factor receptors” (Pharmacology Research & Perspectives, 2020).
